Assay results from ChEMBL document CHEMBL1201862, “PubChem BioAssay data set” (2004).
Activity calls are given as the source filed them.

How the values were obtained:
[1] = inhibitors of HIV Env-driven cell fusion, dose response, cherry-pick (AID 652057); format: functional, cell-based
[2] = ZM109 Env clade C HIV-1 fusion inhibitors, dose response, HeLa effector, CEM target cells, luciferase, cherry-pick (AID 652058); format: functional, cell-based
[3] = off-target signal loss in HeLa-CEM21 co-culture – HeLa F-luc CTL cells, cherry-picked, counter-screen for HIV-1 Env fusion inhibitor project, dose response (AID 652040); format: functional, cell-based;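 note: potency for signal decrease marking cytotoxic or nonspecific inhibition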
[4] = inhibitors of clade B AD8 Env fusion, dose response, cell-based, cherry-pick (AID 652062); format: functional;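 note: luciferase signal from cell-cell fusion driven by HIV-1 clade B AD8 Env; potency is for inhibitors of fusion seen as a drop in luminescence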
Cytochrome P450 2C19 = Cytochrome P450 2C19 (Homo sapiens, UniProt P33261); assay: Cytochrome panel assay with activity outcomes. Panel member name: p450-cyp2c19 Compounds with AC50 equal or less than 10 uM are considered active; format: functional; details: read-out: AC50
Sequence of Cytochrome P450 2C19 (P33261 whole entry): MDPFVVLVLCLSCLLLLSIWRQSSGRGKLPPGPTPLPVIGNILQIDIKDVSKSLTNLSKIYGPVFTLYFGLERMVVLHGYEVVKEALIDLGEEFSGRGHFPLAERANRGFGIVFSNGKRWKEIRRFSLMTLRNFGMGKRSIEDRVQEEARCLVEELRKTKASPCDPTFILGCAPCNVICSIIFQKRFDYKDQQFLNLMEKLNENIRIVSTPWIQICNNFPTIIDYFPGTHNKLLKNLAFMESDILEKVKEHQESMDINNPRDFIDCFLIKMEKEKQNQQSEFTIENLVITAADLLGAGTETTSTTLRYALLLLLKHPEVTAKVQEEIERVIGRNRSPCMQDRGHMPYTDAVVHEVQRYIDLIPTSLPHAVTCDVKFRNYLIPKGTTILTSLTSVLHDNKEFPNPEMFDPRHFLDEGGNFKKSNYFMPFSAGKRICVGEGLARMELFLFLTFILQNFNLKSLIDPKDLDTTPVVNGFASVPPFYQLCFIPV

Cytochrome P450 2C9 [5] = molecular target: T1, Cytochrome P450 2C9 (Homo sapiens, UniProt P11712)
T1 sequence (P11712 whole entry): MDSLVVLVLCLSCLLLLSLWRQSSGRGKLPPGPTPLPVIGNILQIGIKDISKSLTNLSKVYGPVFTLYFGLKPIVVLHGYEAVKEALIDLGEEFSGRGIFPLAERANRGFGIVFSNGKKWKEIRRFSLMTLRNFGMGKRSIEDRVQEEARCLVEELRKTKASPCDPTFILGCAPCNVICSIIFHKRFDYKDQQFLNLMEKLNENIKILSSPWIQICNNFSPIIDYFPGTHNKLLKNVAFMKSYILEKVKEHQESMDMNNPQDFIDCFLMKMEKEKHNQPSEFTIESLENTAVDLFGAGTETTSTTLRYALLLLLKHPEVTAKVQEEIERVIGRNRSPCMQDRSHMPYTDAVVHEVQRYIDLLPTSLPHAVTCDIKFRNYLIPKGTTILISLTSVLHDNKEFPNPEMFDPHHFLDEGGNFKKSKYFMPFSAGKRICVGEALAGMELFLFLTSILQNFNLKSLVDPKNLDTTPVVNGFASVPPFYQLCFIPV

Coagulation factor XII = molecular target: T2, Coagulation factor XII (Homo sapiens, UniProt P00748); format: functional;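 note: activated factor XIIa alpha cleaving a fluorogenic AMC peptide substrate; inhibitor potency from loss of enzyme activity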
T2 sequence (P00748 whole entry): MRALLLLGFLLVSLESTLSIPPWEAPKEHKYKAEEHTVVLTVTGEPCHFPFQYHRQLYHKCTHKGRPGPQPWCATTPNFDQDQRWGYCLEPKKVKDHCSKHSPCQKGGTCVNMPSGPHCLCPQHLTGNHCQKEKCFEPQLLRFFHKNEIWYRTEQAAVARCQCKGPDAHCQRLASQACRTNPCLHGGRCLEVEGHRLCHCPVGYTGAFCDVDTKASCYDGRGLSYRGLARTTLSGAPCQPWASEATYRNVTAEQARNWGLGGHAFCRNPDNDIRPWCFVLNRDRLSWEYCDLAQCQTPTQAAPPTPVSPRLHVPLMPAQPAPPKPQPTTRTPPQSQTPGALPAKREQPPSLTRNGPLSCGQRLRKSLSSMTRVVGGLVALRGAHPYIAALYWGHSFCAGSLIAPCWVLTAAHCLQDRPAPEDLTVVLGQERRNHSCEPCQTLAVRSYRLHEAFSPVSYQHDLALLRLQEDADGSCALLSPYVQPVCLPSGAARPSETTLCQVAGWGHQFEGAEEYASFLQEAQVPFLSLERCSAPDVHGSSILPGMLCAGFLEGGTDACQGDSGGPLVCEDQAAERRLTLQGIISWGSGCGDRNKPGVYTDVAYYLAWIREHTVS

Cytochrome P450 2D6 = Cytochrome P450 2D6 (Homo sapiens, UniProt P10635);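 note: CYP2D6 member of a cytochrome P450 panel assay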
Sequence of Cytochrome P450 2D6 (P10635 whole entry): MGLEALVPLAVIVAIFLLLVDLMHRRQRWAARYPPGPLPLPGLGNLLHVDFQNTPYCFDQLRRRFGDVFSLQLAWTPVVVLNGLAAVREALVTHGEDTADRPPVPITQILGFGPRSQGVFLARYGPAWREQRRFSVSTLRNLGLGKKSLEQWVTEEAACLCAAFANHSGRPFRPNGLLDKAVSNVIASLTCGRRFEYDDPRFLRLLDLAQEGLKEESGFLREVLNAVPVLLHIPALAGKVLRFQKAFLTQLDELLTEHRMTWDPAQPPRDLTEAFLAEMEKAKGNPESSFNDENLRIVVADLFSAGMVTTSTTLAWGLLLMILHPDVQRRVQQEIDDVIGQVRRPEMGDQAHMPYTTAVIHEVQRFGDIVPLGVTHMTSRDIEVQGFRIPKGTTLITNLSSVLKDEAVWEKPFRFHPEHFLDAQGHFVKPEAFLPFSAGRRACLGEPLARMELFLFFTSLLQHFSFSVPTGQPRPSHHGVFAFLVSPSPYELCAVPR

Cytochrome P450 3A4 = Cytochrome P450 3A4 (Homo sapiens, UniProt P08684);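 note: CYP3A4 tested as one member of a cytochrome P450 panel screen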
Sequence of Cytochrome P450 3A4 (P08684 whole entry): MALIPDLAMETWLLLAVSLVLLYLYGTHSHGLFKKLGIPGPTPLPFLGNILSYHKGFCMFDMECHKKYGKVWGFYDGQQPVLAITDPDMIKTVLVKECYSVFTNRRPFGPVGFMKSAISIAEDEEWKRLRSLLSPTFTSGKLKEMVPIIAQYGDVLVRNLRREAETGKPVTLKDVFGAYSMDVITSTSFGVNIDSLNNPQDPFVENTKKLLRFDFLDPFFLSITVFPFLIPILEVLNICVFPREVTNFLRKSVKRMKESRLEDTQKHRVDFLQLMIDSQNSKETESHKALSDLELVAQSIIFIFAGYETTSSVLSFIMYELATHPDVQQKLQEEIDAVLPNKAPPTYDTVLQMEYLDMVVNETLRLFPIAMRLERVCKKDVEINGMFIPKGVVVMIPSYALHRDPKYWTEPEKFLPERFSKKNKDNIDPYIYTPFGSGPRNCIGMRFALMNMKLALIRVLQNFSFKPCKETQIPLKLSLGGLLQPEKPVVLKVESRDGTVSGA

Cytochrome P450 2C9 [6] = molecular target: T1, Cytochrome P450 2C9; remark: listed apart in the source
[7] = inhibitors of firefly luciferase expression or activity, dose response, H4 neuroglioma cells, luminescence (AID 1990); format: functional, cell-based
[8] = Luminescence Cell-Based Dose Response HTS to Identify Inhibitors of 5'UTR Stem-Loop Driven Prion Protein mRNA Translation in H4 Neuroglioblastoma Cells. [Related pubchem assays: 1827 (Project Summary), 1813 (Primary HTS)]; format: functional
[9] = inhibitors of SNCA 5'UTR-driven reporter translation, confirmation, H4 neuroglioma cells, luminescence (AID 1988); format: functional, cell-based
Vero = assay: cells; format: functional, cell-based; details: Chlorocebus sabaeus
[10] = LGR2 antagonists, dose response, cell-based, HEK293, CRE-luciferase reporter, cherry pick, set 2 (AID 743343); format: functional;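 note: transfected cells were stimulated with diluted bursicon conditioned medium after compound addition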
[11] = MC4R antagonists, dose response, counter-screen for LGR2 antagonist project, cell-based, plate reader, cherry pick (AID 743444); format: functional;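 note: transfected HEK 293 cells stimulated with alpha-MSH peptide; potency of inhibitors of the alpha-MSH evoked signal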
[12] = HEK293 cell cytotoxicity, dose response, cytotoxicity control, plate reader, cherry-picked samples (AID 743446); format: functional, cell-based
[13] = molecular target: T3, Replicative DNA helicase DnaB (Mycobacterium tuberculosis, UniProt P9WMR3); assay: DnaB intein splicing inhibitors, dose response, biochemical, cell-free fluorescence (AID 449749); format: functional
T3 sequence (P9WMR3 whole entry): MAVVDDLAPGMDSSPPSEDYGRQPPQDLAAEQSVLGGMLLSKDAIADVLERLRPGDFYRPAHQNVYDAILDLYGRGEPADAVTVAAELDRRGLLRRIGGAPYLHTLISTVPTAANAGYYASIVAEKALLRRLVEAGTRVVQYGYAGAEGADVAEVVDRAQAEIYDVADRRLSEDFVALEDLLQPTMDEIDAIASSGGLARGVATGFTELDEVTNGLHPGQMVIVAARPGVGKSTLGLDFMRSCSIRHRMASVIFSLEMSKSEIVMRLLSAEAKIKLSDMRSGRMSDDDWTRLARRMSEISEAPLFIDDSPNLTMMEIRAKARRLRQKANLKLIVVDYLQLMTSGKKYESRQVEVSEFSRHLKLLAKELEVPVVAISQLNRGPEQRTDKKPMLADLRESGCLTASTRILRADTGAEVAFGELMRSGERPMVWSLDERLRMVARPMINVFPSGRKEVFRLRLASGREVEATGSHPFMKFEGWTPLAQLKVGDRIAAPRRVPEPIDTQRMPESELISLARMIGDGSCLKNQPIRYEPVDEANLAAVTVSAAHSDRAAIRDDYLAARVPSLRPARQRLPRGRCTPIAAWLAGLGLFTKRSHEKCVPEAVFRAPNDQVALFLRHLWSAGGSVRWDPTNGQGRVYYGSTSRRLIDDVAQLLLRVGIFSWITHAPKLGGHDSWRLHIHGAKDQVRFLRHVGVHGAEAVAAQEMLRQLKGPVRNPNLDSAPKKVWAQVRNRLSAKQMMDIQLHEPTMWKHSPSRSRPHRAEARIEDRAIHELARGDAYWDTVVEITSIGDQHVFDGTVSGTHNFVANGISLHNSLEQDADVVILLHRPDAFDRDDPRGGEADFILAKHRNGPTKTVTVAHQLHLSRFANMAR

Protein RecA = molecular target: T4, Protein RecA (Mycobacterium tuberculosis, UniProt P9WHJ3); assay: Fluorescence Cell-Free Homogeneous Dose Retest to Identify Inhibitors of RecA-Intein Splicing Activity. [Related pubchem assays (depositor defined):AID2097, AID2223, AID489010, AID492950]; format: functional
T4 sequence (P9WHJ3 whole entry): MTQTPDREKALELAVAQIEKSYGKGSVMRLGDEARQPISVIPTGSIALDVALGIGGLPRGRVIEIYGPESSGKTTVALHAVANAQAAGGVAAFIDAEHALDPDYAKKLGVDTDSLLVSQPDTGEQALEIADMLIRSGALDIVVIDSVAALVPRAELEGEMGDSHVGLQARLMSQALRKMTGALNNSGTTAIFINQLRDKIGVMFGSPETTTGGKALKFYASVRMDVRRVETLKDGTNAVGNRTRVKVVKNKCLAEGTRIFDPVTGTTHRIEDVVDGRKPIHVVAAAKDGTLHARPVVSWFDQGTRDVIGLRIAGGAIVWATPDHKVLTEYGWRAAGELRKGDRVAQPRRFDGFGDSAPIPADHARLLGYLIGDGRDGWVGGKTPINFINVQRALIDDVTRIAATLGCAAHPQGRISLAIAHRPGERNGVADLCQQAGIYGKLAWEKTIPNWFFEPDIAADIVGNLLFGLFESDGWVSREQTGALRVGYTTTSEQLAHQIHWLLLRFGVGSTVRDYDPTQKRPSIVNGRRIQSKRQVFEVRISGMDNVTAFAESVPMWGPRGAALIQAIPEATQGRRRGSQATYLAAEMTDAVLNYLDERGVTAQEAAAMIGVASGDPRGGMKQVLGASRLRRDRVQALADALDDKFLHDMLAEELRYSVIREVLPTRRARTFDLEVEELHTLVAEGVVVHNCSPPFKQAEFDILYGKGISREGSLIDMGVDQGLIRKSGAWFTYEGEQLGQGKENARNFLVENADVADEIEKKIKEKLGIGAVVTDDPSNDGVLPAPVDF

Genome polyprotein = Genome polyprotein (dengue virus type 2, UniProt P29990); assay: Dengue-2 NS5 methyltransferase inhibitors, primary screen, biochemical, confirmation dose response (AID 588689); format: functional
Sequence of Genome polyprotein (P29990 2492-3391 limits assumed): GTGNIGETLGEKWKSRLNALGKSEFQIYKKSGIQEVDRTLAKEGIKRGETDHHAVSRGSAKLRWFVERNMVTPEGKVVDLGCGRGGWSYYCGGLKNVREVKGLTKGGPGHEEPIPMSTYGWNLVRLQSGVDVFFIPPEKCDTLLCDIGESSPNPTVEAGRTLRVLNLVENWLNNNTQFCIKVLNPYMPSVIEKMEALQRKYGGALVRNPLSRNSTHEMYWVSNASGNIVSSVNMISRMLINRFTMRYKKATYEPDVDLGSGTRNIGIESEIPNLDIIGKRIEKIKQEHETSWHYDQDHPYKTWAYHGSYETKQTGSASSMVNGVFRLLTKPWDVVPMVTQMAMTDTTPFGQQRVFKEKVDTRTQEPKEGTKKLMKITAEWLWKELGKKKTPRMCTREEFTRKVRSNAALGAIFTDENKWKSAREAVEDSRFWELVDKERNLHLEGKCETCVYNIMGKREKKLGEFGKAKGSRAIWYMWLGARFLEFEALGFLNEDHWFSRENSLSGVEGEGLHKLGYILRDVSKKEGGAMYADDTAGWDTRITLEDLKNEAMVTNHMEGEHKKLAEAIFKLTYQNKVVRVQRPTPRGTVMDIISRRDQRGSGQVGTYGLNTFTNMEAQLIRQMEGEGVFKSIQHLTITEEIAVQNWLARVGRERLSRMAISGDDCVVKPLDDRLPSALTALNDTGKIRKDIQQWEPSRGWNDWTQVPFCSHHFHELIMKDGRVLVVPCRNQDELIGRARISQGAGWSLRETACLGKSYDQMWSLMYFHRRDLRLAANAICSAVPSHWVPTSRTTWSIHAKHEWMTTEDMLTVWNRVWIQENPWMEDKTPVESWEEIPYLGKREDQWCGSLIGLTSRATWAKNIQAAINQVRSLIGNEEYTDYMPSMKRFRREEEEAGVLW

[14] = inhibitors of intracellular T. cruzi replication, confirmation, NIH3T3 host cells, beta-gal luminescence (AID 2044); format: functional, cell-based;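 note: intracellular parasites grown in NIH/3T3 mouse fibroblasts as host cells; luminescent beta-galactosidase reporter signal from transgenic T. cruzi replicating inside host cells; inhibitors lower the luminescence signal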
[15] = cytotoxicity toward NIH3T3 fibroblasts, dose response, counter-screen, cell-based, ATP luminescence, mouse fibroblasts (AID 2010); format: functional;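 note: cells exposed to compound for about 90 hours before reading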
[16] = molecular target: T5, Microphthalmia-associated transcription factor (Homo sapiens, UniProt O75030); assay: TRPM1 promoter luciferase signal decrease, dose response, MITF inhibitor project, cell-based, SK-MEL-5, cherry-picked, set 3 (AID 493073); format: functional
T5 sequence (O75030 whole entry): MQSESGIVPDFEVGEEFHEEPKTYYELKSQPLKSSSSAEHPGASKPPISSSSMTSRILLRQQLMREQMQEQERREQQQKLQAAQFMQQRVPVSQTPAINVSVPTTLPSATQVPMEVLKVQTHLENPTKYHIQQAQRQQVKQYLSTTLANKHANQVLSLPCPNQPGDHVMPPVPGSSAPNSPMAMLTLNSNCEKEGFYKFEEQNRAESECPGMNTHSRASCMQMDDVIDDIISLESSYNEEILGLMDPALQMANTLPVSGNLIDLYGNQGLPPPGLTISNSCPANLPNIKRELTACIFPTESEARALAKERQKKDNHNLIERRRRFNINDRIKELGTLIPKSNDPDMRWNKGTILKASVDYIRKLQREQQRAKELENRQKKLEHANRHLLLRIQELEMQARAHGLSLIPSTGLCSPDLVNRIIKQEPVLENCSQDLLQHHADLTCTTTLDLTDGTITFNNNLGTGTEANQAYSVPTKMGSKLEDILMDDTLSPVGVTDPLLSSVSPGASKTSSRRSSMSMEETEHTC

INS1 = assay: beta cell apoptosis inhibitors, cytokine rescue, dose response, luminescence, retest (AID 449756); format: functional, cell-based; details: Rattus norvegicus;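 note: cell death triggered by IL-1 beta plus TNF-alpha plus IFN-gamma mixture; protective hits raise ATP signal compared with cytokine alone wells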

Which AC50 [1] does the source give for `CC(C)OP(=O)(Nc1cccc2ccccc12)OC(C)C` here?
The AC50 was 4.78 µM (active).

What about the AC50 [2] of the same molecule?
Its AC50 is 5.55 µM (active).

And the AC50 [3]?
Its AC50 is 5.98 µM (active).

What about the AC50 [4] of the same molecule?
The AC50 was 7.86 µM (active).

For `CON(C)c1nc(OCCNC(=O)OCc2ccc(Cl)cc2C)nc(N(C)C)n1`, which AC50 [1] is on record?
The AC50 was 1.29 µM (active).

And the AC50 [2]?
The AC50 was 2.22 µM (active).

And the AC50 [3]?
The AC50 was 2.32 µM (active).

And the AC50 [4]?
Its AC50 is 0.357 µM (active).

Which AC50 (Cytochrome P450 2C19) does the source give for `CCOc1cc2c(C)cc(=O)oc2cc1Cl` here?
The AC50 was 14.1 µM (inconclusive).

What about the AC50 (Cytochrome P450 2C9 [5]) of the same molecule?
The AC50 was “inconclusive”.

Which IC50 (Coagulation factor XII) does the source give for `CCCC(=O)/N=C1\SC2CS(=O)(=O)CC2N1c1ccc(CC)cc1` (centres undefined) here?
Its IC50 is > 50 µM (inactive).

And the AC50 (Cytochrome P450 2D6)?
Its AC50 is 15.8 µM (inconclusive).

And the AC50 (Cytochrome P450 3A4)?
The AC50 was 12.6 µM (inconclusive).

What about the AC50 (Cytochrome P450 2C9 [6]) of the same molecule?
The AC50 was 10 µM (inconclusive).

For `Nc1[nH]nc2nc(NCc3ccccc3)c3c(c12)CCN(Cc1ccccc1)C3`, which EC50 [7] is on record?
Its EC50 is 20.1 µM (active).

And the EC50 [8]?
The EC50 was 16.3 µM (active).

And the EC50 [9]?
The EC50 was > 120 µM (not active).

And the IC50 (Vero)?
The IC50 was > 25 µM (active).

Which results are given for `Clc1ccc(OCc2nc(-c3ccccn3)no2)c(Br)c1`?
AC50 [10]: 6.73 µM (active); AC50 [11]: 10.6 µM (active); AC50 [12]: 27.6 µM (active)

With `COc1ccc(CN(C)C(=S)Nc2ccc(Cl)cc2)cc1` as the molecule, how does the IC50 (Coagulation factor XII) read?
The IC50 was > 50 µM (inactive).

With `CS(=O)(=O)N(Cc1ccccc1)c1ccc(C(=O)NC2CCCCC2O)cc1` (centres undefined) as the molecule, how does the IC50 (Coagulation factor XII) read?
Its IC50 is > 50 µM (inactive).

With `COc1ccc(C(=O)NC2CCCc3c2cnn3-c2cccc(C)c2C)o1` (centres undefined) as the molecule, how does the IC50 (Vero) read?
Its IC50 is > 25 µM (active).

For `C#CCOc1ccc(/C=C2/C(=O)N(c3cccc(C(=O)O)c3)N=C2C)cc1OC`, which AC50 [13] is on record?
Its AC50 is 2.41 µM (active).

And the EC50 (Protein RecA)?
Its EC50 is 2.01 µM (active).

And the IC50 (Genome polyprotein)?
The IC50 was 8.42 µM (active).

For `Cc1ccccc1-c1nc(N2CCOCC2)c2ccccc2n1`, which AC50 (Cytochrome P450 2C19) is on record?
The AC50 was 39.8 µM (inconclusive).

And the AC50 (Cytochrome P450 2C9 [5])?
Its AC50 is “inconclusive”.

For `COc1cc(NC(=O)c2ccc([N+](=O)[O-])o2)ccc1NC(=O)c1cccs1`, which EC50 [14] is on record?
The EC50 was 0.548 µM (active).

What about the EC50 [15] of the same molecule?
The EC50 was > 60 µM (not active).

And the AC50 [16]?
Its AC50 is 8.46 µM (active).

And the AC50 (INS1)?
The AC50 was 11.2 µM (active).

With `Cc1cccc2cc(=O)[nH]c(C)c12` as the molecule, how does the AC50 (Cytochrome P450 2C9 [5]) read?
Its AC50 is “inconclusive”.
